# Assay results from PubChem BioAssay (NCI).
#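 Method: 48-hour compound exposure of cells in 96-well plates, five concentrations, linear interpolation of endpoints. Here, GI50 denotes the concentration required for 50% inhibition of growth. TGI denotes the concentration required for complete inhibition of growth.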
# Experiments:
# Experiment in all cases: inhibition of tumour cell growth, NCI panel, 48 h
# SW-620 colon = test system: SW-620 colon
# RPMI-8226 leukemia = test system: RPMI-8226 leukemia
# HL-60(TB) leukemia = test system: HL-60(TB) leukemia
# T-47D breast = test system: T-47D breast
# MCF7 breast = test system: MCF7 breast
# EKVX NSCLC = test system: EKVX NSCLC
# HOP-62 NSCLC = test system: HOP-62 NSCLC
# PC-3 prostate = test system: PC-3 prostate
# CCRF-CEM leukemia = test system: CCRF-CEM leukemia
# IGROV1 ovarian = test system: IGROV1 ovarian
# SK-OV-3 ovarian = test system: SK-OV-3 ovarian
# HS 578T breast = test system: HS 578T breast
# BT-549 breast = test system: BT-549 breast
# OVCAR-4 ovarian = test system: OVCAR-4 ovarian
# SN12C renal = test system: SN12C renal
# SNB-19 CNS = test system: SNB-19 CNS
# OVCAR-5 ovarian = test system: OVCAR-5 ovarian
# SF-539 CNS = test system: SF-539 CNS
# 786-0 renal = test system: 786-0 renal
# SF-268 CNS = test system: SF-268 CNS
# DU-145 prostate = test system: DU-145 prostate
# UACC-62 melanoma = test system: UACC-62 melanoma
# LOX IMVI melanoma = test system: LOX IMVI melanoma
# NCI/ADR-RES ovarian = test system: NCI/ADR-RES ovarian
# TK-10 renal = test system: TK-10 renal
# NCI-H522 lung = test system: NCI-H522 lung
# ACHN renal = test system: ACHN renal
# SNB-75 CNS = test system: SNB-75 CNS
# OVCAR-8 ovarian = test system: OVCAR-8 ovarian
# SF-295 CNS = test system: SF-295 CNS
# OVCAR-3 ovarian = test system: OVCAR-3 ovarian
# SK-MEL-5 melanoma = test system: SK-MEL-5 melanoma
# RXF 393 renal = test system: RXF 393 renal
# U251 CNS = test system: U251 CNS
# UO-31 renal = test system: UO-31 renal
# UACC-257 melanoma = test system: UACC-257 melanoma
# NCI-H226 lung = test system: NCI-H226 lung
# CAKI-1 renal = test system: CAKI-1 renal
# KM12 colon = test system: KM12 colon
# A549 NSCLC = test system: A549 NSCLC
# SR leukemia = test system: SR leukemia
# MDA-MB-231 breast = test system: MDA-MB-231 breast
# K-562 leukemia = test system: K-562 leukemia
# A498 renal = test system: A498 renal
# HOP-92 NSCLC = test system: HOP-92 NSCLC
# NCI-H23 lung = test system: NCI-H23 lung
# M14 melanoma = test system: M14 melanoma
# SK-MEL-28 melanoma = test system: SK-MEL-28 melanoma
# MOLT-4 leukemia = test system: MOLT-4 leukemia
# HCT-116 colon = test system: HCT-116 colon
# MDA-MB-435 = test system: MDA-MB-435
# MALME-3M melanoma = test system: MALME-3M melanoma
# HCT-15 colon = test system: HCT-15 colon
# HT29 colon = test system: HT29 colon
# SK-MEL-2 melanoma = test system: SK-MEL-2 melanoma
# HCC-2998 colon = test system: HCC-2998 colon
# NCI-H460 lung = test system: NCI-H460 lung
# COLO 205 colon = test system: COLO 205 colon
smiles,measurement,setting,value
CSc1nc(-c2cc3ccccc3o2)cc(-c2ccc(Cl)cc2)c1C#N,GI50,SW-620 colon,> 100 µM
same,TGI,SW-620 colon,> 100 µM
same,GI50,RPMI-8226 leukemia,> 67.6 µM
same,TGI,RPMI-8226 leukemia,> 100 µM
same,GI50,HL-60(TB) leukemia,> 100 µM
same,TGI,HL-60(TB) leukemia,> 100 µM
same,GI50,T-47D breast,0.93 µM
same,TGI,T-47D breast,> 100 µM
same,GI50,MCF7 breast,0.352 µM
same,TGI,MCF7 breast,> 100 µM
same,GI50,EKVX NSCLC,0.918 µM
same,TGI,EKVX NSCLC,> 100 µM
same,GI50,HOP-62 NSCLC,12.7 µM
same,TGI,HOP-62 NSCLC,> 79.6 µM
same,GI50,PC-3 prostate,8.82 µM
same,TGI,PC-3 prostate,> 100 µM
same,GI50,CCRF-CEM leukemia,> 100 µM
same,TGI,CCRF-CEM leukemia,> 100 µM
same,GI50,IGROV1 ovarian,0.706 µM
same,TGI,IGROV1 ovarian,13.4 µM
same,GI50,SK-OV-3 ovarian,5.29 µM
same,TGI,SK-OV-3 ovarian,56.8 µM
same,GI50,HS 578T breast,22.2 µM
same,TGI,HS 578T breast,> 64.3 µM
same,GI50,BT-549 breast,23.8 µM
same,TGI,BT-549 breast,75.7 µM
same,GI50,OVCAR-4 ovarian,> 100 µM
same,TGI,OVCAR-4 ovarian,> 100 µM
same,GI50,SN12C renal,26.9 µM
same,TGI,SN12C renal,> 100 µM
same,GI50,SNB-19 CNS,19.7 µM
same,TGI,SNB-19 CNS,> 76.5 µM
same,GI50,OVCAR-5 ovarian,> 84.6 µM
same,TGI,OVCAR-5 ovarian,> 100 µM
same,GI50,SF-539 CNS,2.99 µM
same,TGI,SF-539 CNS,14.6 µM
same,GI50,786-0 renal,7.36 µM
same,TGI,786-0 renal,76.8 µM
same,GI50,SF-268 CNS,18 µM
same,TGI,SF-268 CNS,> 80.1 µM
same,GI50,DU-145 prostate,3.87 µM
same,TGI,DU-145 prostate,> 100 µM
same,GI50,UACC-62 melanoma,5.03 µM
same,TGI,UACC-62 melanoma,> 49.8 µM
same,GI50,LOX IMVI melanoma,9.53 µM
same,TGI,LOX IMVI melanoma,> 100 µM
same,GI50,NCI/ADR-RES ovarian,44.9 µM
same,TGI,NCI/ADR-RES ovarian,> 100 µM
same,GI50,TK-10 renal,8.07 µM
same,TGI,TK-10 renal,31.8 µM
same,GI50,NCI-H522 lung,8.67 µM
same,TGI,NCI-H522 lung,> 100 µM
same,GI50,ACHN renal,3.03 µM
same,TGI,ACHN renal,67.7 µM
same,GI50,SNB-75 CNS,5.56 µM
same,TGI,SNB-75 CNS,26.6 µM
same,GI50,OVCAR-8 ovarian,3.57 µM
same,TGI,OVCAR-8 ovarian,> 100 µM
same,GI50,SF-295 CNS,6.17 µM
same,TGI,SF-295 CNS,37.8 µM
same,GI50,OVCAR-3 ovarian,2.58 µM
same,TGI,OVCAR-3 ovarian,> 24.2 µM
same,GI50,SK-MEL-5 melanoma,> 100 µM
same,TGI,SK-MEL-5 melanoma,> 100 µM
same,GI50,RXF 393 renal,3.7 µM
same,TGI,RXF 393 renal,20.1 µM
same,GI50,U251 CNS,3.76 µM
same,TGI,U251 CNS,28.4 µM
same,GI50,UO-31 renal,1.73 µM
same,TGI,UO-31 renal,> 100 µM
same,GI50,UACC-257 melanoma,> 100 µM
same,TGI,UACC-257 melanoma,> 100 µM
same,GI50,NCI-H226 lung,6.28 µM
same,TGI,NCI-H226 lung,> 100 µM
same,GI50,CAKI-1 renal,5.28 µM
same,TGI,CAKI-1 renal,> 73.4 µM
same,GI50,KM12 colon,> 100 µM
same,TGI,KM12 colon,> 100 µM
same,GI50,A549 NSCLC,4.48 µM
same,TGI,A549 NSCLC,> 100 µM
same,GI50,SR leukemia,28.6 µM
same,TGI,SR leukemia,> 100 µM
same,GI50,MDA-MB-231 breast,3.58 µM
same,TGI,MDA-MB-231 breast,50 µM
same,GI50,K-562 leukemia,> 100 µM
same,TGI,K-562 leukemia,> 100 µM
same,GI50,A498 renal,27 µM
same,TGI,A498 renal,> 100 µM
same,GI50,HOP-92 NSCLC,3.4 µM
same,TGI,HOP-92 NSCLC,15.2 µM
same,GI50,NCI-H23 lung,9.24 µM
same,TGI,NCI-H23 lung,> 100 µM
same,GI50,M14 melanoma,45.5 µM
same,TGI,M14 melanoma,> 100 µM
same,GI50,SK-MEL-28 melanoma,> 100 µM
same,TGI,SK-MEL-28 melanoma,> 100 µM
same,GI50,MOLT-4 leukemia,> 85 µM
same,TGI,MOLT-4 leukemia,> 100 µM
same,GI50,HCT-116 colon,5.11 µM
same,TGI,HCT-116 colon,> 100 µM
same,GI50,MDA-MB-435,> 100 µM
same,TGI,MDA-MB-435,> 100 µM
same,GI50,MALME-3M melanoma,20.5 µM
same,TGI,MALME-3M melanoma,> 100 µM
Cc1cc2c(c(S(=O)(=O)c3ccc(Cl)cc3[N+](=O)[O-])c1)NCCC2,TGI,SW-620 colon,> 100 µM
same,TGI,RPMI-8226 leukemia,> 100 µM
same,TGI,HCT-15 colon,> 100 µM
same,TGI,HT29 colon,> 100 µM
same,TGI,T-47D breast,> 100 µM
same,TGI,MCF7 breast,> 100 µM
same,TGI,EKVX NSCLC,> 100 µM
same,TGI,HOP-62 NSCLC,> 100 µM
same,TGI,PC-3 prostate,> 100 µM
same,TGI,IGROV1 ovarian,> 100 µM
same,TGI,SK-OV-3 ovarian,> 100 µM
same,TGI,HS 578T breast,> 100 µM
same,TGI,BT-549 breast,> 100 µM
same,TGI,OVCAR-4 ovarian,> 100 µM
same,TGI,SN12C renal,> 100 µM
same,TGI,SNB-19 CNS,> 100 µM
same,TGI,OVCAR-5 ovarian,> 100 µM
same,TGI,SF-539 CNS,> 100 µM
same,TGI,SK-MEL-2 melanoma,> 100 µM
same,TGI,HCC-2998 colon,> 100 µM
same,TGI,786-0 renal,> 100 µM
same,TGI,SF-268 CNS,> 100 µM
same,TGI,DU-145 prostate,> 100 µM
same,TGI,UACC-62 melanoma,> 100 µM
same,TGI,LOX IMVI melanoma,> 100 µM
same,TGI,NCI/ADR-RES ovarian,> 100 µM
same,TGI,TK-10 renal,> 100 µM
same,TGI,NCI-H522 lung,> 100 µM
same,TGI,ACHN renal,> 100 µM
same,TGI,SNB-75 CNS,> 100 µM
same,TGI,OVCAR-8 ovarian,> 100 µM
same,TGI,SF-295 CNS,> 100 µM
same,TGI,OVCAR-3 ovarian,> 100 µM
same,TGI,SK-MEL-5 melanoma,> 100 µM
same,TGI,RXF 393 renal,> 100 µM
same,TGI,U251 CNS,> 100 µM
same,TGI,UO-31 renal,> 100 µM
same,TGI,NCI-H226 lung,> 100 µM
same,TGI,NCI-H460 lung,> 100 µM
same,TGI,KM12 colon,> 100 µM
same,TGI,A549 NSCLC,> 100 µM
same,TGI,SR leukemia,> 100 µM
same,TGI,MDA-MB-231 breast,> 100 µM
same,TGI,A498 renal,> 100 µM
same,TGI,NCI-H23 lung,> 100 µM
same,TGI,M14 melanoma,> 100 µM
same,TGI,SK-MEL-28 melanoma,> 100 µM
same,TGI,COLO 205 colon,> 100 µM
same,TGI,MDA-MB-435,> 100 µM
same,TGI,MALME-3M melanoma,> 100 µM
